Reference: the supplement of paper PMC10307832

Tests used:
Experiment in all cases: relative viability (nuclei count vs DMSO), 5 days (fraction); higher = more cells survive
Mirin + Trametinib = compound: N=C1NC(=O)/C(=C/c2ccc(O)cc2)S1 [Mirin] + CC(=O)Nc1cccc(-n2c(=O)n(C3CC3)c(=O)c3c(Nc4ccc(I)cc4F)n(C)c(=O)c(C)c32)c1 [Trametinib] (partner 0.02 µM)
How it was run: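 Relative viability is defined as nuclei in treated wells over nuclei in vehicle wells. Duplicate plates were run and medians reported. Lung cancer cell lines in 1536-well plates were dosed by pin tool one day after seeding, with one drug or with a fixed anchor-drug dose plus five library-drug doses (not always all listed) in √10 steps, and nuclei were counted after 5 days.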

[1] = compound: CCn1c(-c2nonc2N)nc2cnc(Oc3cccc(NC(=O)c4ccc(OCCN5CCOCC5)cc4)c3)cc21
How it was run: (§1)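 For viability, nuclei in each treated well were divided by nuclei in vehicle wells and the median across plates was taken. Lung cancer cell lines in 1536-well plates were pinned with five library-drug doses (not always all listed) spaced by √10, cultured 5 days without medium change, and imaged at 4× after Hoechst staining, with plates passing only at control CV below 25% and at least one doubling.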

Mirin = compound: N=C1NC(=O)/C(=C/c2ccc(O)cc2)S1 [Mirin]
How it was run: as §1

[2] = compound: CCC1=CN=CN=C1N2CCN(CC2)CC3=NC4=C(N3)C=C(C=C4)C(F)(F)F
How it was run: as §1

## UMC-11
Mirin + Trametinib; first compound 0.25 µM
  relative viability: 0.721
Mirin + Trametinib; first compound 0.7906 µM
  relative viability: 0.381
Mirin + Trametinib; first compound 2.5 µM
  relative viability: 0.778
Mirin + Trametinib; first compound 7.906 µM
  relative viability: 0.558
Mirin + Trametinib; first compound 25 µM
  relative viability: 0.496
[1]; 0.04 µM
  relative viability: 0.965
[1]; 0.1265 µM
  relative viability: 0.85
[1]; 0.4 µM
  relative viability: 0.481
[1]; 1.265 µM
  relative viability: 0.275
[1]; 4 µM
  relative viability: 0.236
Mirin; 0.25 µM
  relative viability: 1.01
Mirin; 0.7906 µM
  relative viability: 0.657
Mirin; 2.5 µM
  relative viability: 1.02
Mirin; 7.906 µM
  relative viability: 0.803
Mirin; 25 µM
  relative viability: 0.608
[2]; 0.04 µM
  relative viability: 0.925
[2]; 0.1265 µM
  relative viability: 0.948
[2]; 0.4 µM
  relative viability: 0.933
[2]; 1.265 µM
  relative viability: 0.838
[2]; 4 µM
  relative viability: 0.888
